In patent publication US20100286092A1, “BETA-LACTAMASE INHIBITORS” (priority 2007, published 2010):

Columns and labels:
Conditions in all cases: in the presence of a fixed amount (8 μg/mL) of Ceftazidime; CAMHB, 16-20 hours at 37° C.
[1] = system: K. pneumoniae expressing the Class A carbapenemase KPC-2
Excerpt: (§1) To determine the ability of test compounds to potentiate the inhibition of the growth of bacterial strains producing beta-lactamase enzymes, classic cell based screening assays were employed. Four bacteria strains producing beta-lactamase enzymes were used: K. pneumoniae expressing the Class A Extended Spectrum Beta-Lactamase (ESBL) CTX-M-15, E. coli expressing the Class A ESBL SHV-5, E. cloacae expressing the Class C P99+, and K. pneumoniae expressing the Class A carbapenemase KPC-2. In order to evaluate the ability of test compounds to inhibit beta-lactamase activity, Applicants used a modification of the broth microdilution assay. The assay was conducted in Cation Adjusted Mueller Hinton Broth (CAMHB, BD #212322, BD Diagnostic Systems, Sparks, Md.). Bacteria strains were grown for 3-5 hours in CAMBH broth. All four strains were grown in presence of 50 μg/mL ampicillin to ensure resistance is maintained. In the meantime, test compounds were diluted in DMSO to a 0.1 mg/mL stock. The compounds were added to a microtiter plate and were diluted in 2-fold serial dilutions in CAMHB in a final concentration range of 8 μg/mL to 0.015 μg/ml. An overlay of CAMHB containing a cephalosporin was added to the compounds at a final static concentration of 8 μg/ml. […] Each of these compound plates are made in quadruplicate, one for each bacteria strain. In addition to the titration of test compounds the MICs of a panel of cephalosporins is also tested to ensure the strains are behaving consistently from test to test. Once the test compound and cephalosporin are added the plates can be inoculated. Inocula are conducted according to CLSI broth microdilution method. After inoculation the plates are incubated for 16-20 hours at 37° C. then the Minimal Inhibitory Concentration (MIC) of the test compound is determined visually.
(§2) Using the methodology described above, examples of the current invention were evaluated for their ability to inhibit the growth of β-lactamase producing bacteria in the presence of a β-lactam antibiotic. […] NT=Not Tested.

[2] = system: K. pneumoniae expressing the Class A Extended Spectrum Beta-Lactamase (ESBL) CTX-M-15; type: cell-based
Excerpt: as §1, §2

[3] = system: E. cloacae expressing the Class C P99+; type: cell-based
Excerpt: as §1, §2

Row | Structure (SMILES) | MIC of example compound, K. pneumoniae KPC-2 + 8 μg/mL CAZ [1] | MIC of example compound, K. pneumoniae CTX-M-15 + 8 μg/mL CAZ [2] | MIC of example compound, E. cloacae P99 AmpC + 8 μg/mL CAZ [3]
1 | O=C(N[C@@H](Cc1cccc(C(=O)O)c1O)B(O)O)c1ccno1 [Example 46, (1R)-1-(isoxazole-5-carbonyl-amino)-2-(2-hydroxy-3-carboxyphenyl)ethyl-1-boronic acid] | C (C represents an MIC of <1 μg/mL) | C (C represents an MIC of <1 μg/mL) | C (C represents an MIC of <1 μg/mL)
2 | O=C(CCC(=O)c1cccs1)N[C@@H](Cc1cccc(C(=O)O)c1O)B(O)O [Example 5, (1R)-1-(4-oxo-4-thiophen-2-yl-butyrylamino)-2-(2-hydroxy-3-carboxyphenyl)ethyl-1-boronic acid] | C (C represents an MIC of <1 μg/mL) | C (C represents an MIC of <1 μg/mL) | C (C represents an MIC of <1 μg/mL)
3 | CC(C)C(=O)N[C@@H](Cc1cccc(C(=O)O)c1O)B(O)O [Example 14, (1R)-1-Isobutyrylamino-1-(3-carboxy-2-hydroxy)benzyl-methylboronic acid] | C (C represents an MIC of <1 μg/mL) | C (C represents an MIC of <1 μg/mL) | C (C represents an MIC of <1 μg/mL)
4 | O=C(Cc1cccs1)N[C@@H](Cc1ccc(C(=O)O)cc1O)B(O)O [Example 2, (1R)-1-(2-thiophene-2-yl-acetylamino)-2-(2-hydroxy-4-carboxyphenyl)ethyl-1-boronic acid] |  |  | A (A represents an MIC>8 μg/mL)
5 | O=C(N[C@@H](Cc1cccc(C(=O)O)c1O)B(O)O)c1ccccc1O [Example 35, (1R)-1-(2-hydroxybenzoylamino)-2-(2-hydroxy-3-carboxyphenyl)ethyl-1-boronic acid] | C (C represents an MIC of <1 μg/mL) |  | 
6 | N[C@H](C(=O)N[C@@H](Cc1cccc(C(=O)O)c1O)B(O)O)c1ccccc1.O=CO [Example 12, (1R,2′S)-1-(2-amino-2-phenylacetylamino)-2-(2-hydroxy-3-carboxyphenyl)ethyl-1-boronic acid formate salt] | C (C represents an MIC of <1 μg/mL) | C (C represents an MIC of <1 μg/mL) | 
7 | O=C(COCc1ccccc1)N[C@@H](Cc1cccc(C(=O)O)c1O)B(O)O [Example 22, (1R)-1-(2-benzyloxyacetylamino)-2-(2-hydroxy-3-carboxyphenyl)ethyl-1-boronic acid] | C (C represents an MIC of <1 μg/mL) | C (C represents an MIC of <1 μg/mL) | 
8 | COc1ccc(C(=O)N[C@@H](Cc2cccc(C(=O)O)c2O)B(O)O)cc1 [Example 33, (1R)-1-(4-Methoxybenzoyl)-amino-1-(3-carboxy-2-hydroxy)benzyl-methylboronic acid] | C (C represents an MIC of <1 μg/mL) |  | 
9 | O=C(CN1C(=O)c2ccccc2C1=O)N[C@@H](Cc1cccc(C(=O)O)c1O)B(O)O [Example 45, (1R)-1-(2-(1,3-dioxoisoindolin-2-yl)acetylamino)-2-(2-hydroxy-3-carboxyphenyl)ethyl-1-boronic acid] | C (C represents an MIC of <1 μg/mL) |  | 
10 | CC(=O)N[C@@H](Cc1cccc(C(=O)O)c1O)B(O)O [Example 6, (1R)-1-(2-acetylamino)-2-(2-hydroxy-3-carboxyphenyl)ethyl-1-boronic acid] | C (C represents an MIC of <1 μg/mL) | C (C represents an MIC of <1 μg/mL) | 
11 | O=C(Cn1cccn1)N[C@@H](Cc1cccc(C(=O)O)c1O)B(O)O [Example 40, (1R)-1-(Pyrazol-1-yl-acetylamino)-2-(2-hydroxy-3-carboxyphenyl)ethyl-1-boronic acid] | C (C represents an MIC of <1 μg/mL) | C (C represents an MIC of <1 μg/mL) | 
12 | NC(=O)COc1cccc(CC(=O)N[C@@H](Cc2cccc(C(=O)O)c2O)B(O)O)c1 [Example 8, (1R)-1-[(3-carbamoylmethoxy)-phenyl]-acetylamino-(3-carboxy-2-hydroxy)benzyl-methylboronic acid] | C (C represents an MIC of <1 μg/mL) | C (C represents an MIC of <1 μg/mL) | 
13 | O=C(Cc1cccc(O)c1)N[C@@H](Cc1cccc(C(=O)O)c1O)B(O)O [Example 3, (1R)-1-(3-hydroxy-phenyl)acetylamino-1-(3-carboxy-2-hydroxy)benzyl-methyl boronic acid] | C (C represents an MIC of <1 μg/mL) | C (C represents an MIC of <1 μg/mL) | 
14 | O=C(N[C@@H](Cc1cccc(C(=O)O)c1O)B(O)O)c1cccc(O)c1 [Example 28, (1R)-1-(3-hydroxybenzoylamino)-2-(2-hydroxy-3-carboxyphenyl)ethyl-1-boronic acid] | C (C represents an MIC of <1 μg/mL) | C (C represents an MIC of <1 μg/mL) | 
15 | O=C(N[C@@H](Cc1cccc(C(=O)O)c1O)B(O)O)c1ccc(Cl)cc1 [Example 32, (1R)-1-(4-Chloro-benzoyl)-amino-1-(3-carboxy-2-hydroxy)benzyl-methylboronic acid] | C (C represents an MIC of <1 μg/mL) |  | 
16 | CC(C)(C)CC(=O)N[C@@H](Cc1cccc(C(=O)O)c1O)B(O)O [Example 25, (1R)-1-(3,3-Dimethyl-butyrylamino)-(3-carboxy-2-hydroxy)benzyl-methylboronic acid] | C (C represents an MIC of <1 μg/mL) | C (C represents an MIC of <1 μg/mL) | 
17 | NCc1cccc(C(=O)N[C@@H](Cc2cccc(C(=O)O)c2O)B(O)O)c1.O=CO [Example 42, (1R)-1-(3-aminomethyl)-benzoylamino-1-(3-carboxy-2-hydroxy)benzyl-methyl boronic acid formate] | C (C represents an MIC of <1 μg/mL) |  | C (C represents an MIC of <1 μg/mL)
18 | O=C(N[C@@H](Cc1cccc(C(=O)O)c1O)B(O)O)c1ccc(Cl)nc1 [Example 31, (1R)-1-(6-Chloro-pyridine-3-carbonyl)-amino-1-(3-carboxy-2-hydroxy)benzyl-methylboronic acid] | C (C represents an MIC of <1 μg/mL) | C (C represents an MIC of <1 μg/mL) | 
19 | Cc1ccccc1C(=O)N[C@@H](Cc1cccc(C(=O)O)c1O)B(O)O [Example 30, (1R)-1-(2-methylbenzoylamino)-2-(2-hydroxy-3-carboxyphenyl)ethyl-1-boronic acid] | C (C represents an MIC of <1 μg/mL) |  | 
20 | O=C(Cc1cc(O)ccc1O)N[C@@H](Cc1cccc(C(=O)O)c1O)B(O)O [Example 18, (1R)-1-(2-(2,5-dihydroxyphenyl)acetylamino)-2-(2-hydroxy-3-carboxyphenyl)ethyl-1-boronic acid] |  | C (C represents an MIC of <1 μg/mL) | 
21 | CCCCCCC(=O)N[C@@H](Cc1cccc(C(=O)O)c1O)B(O)O [Example 24, (1R)-1-(heptanoylamino)-2-(2-hydroxy-3-carboxyphenyl)ethyl-1-boronic acid] | C (C represents an MIC of <1 μg/mL) | C (C represents an MIC of <1 μg/mL) | 
22 | O=C(O)c1cccc(C[C@H](NC(=O)c2cccc3ccccc23)B(O)O)c1O [Example 27, (1R)-1-(1-naphthoylamino)-2-(2-hydroxy-3-carboxyphenyl)ethyl-1-boronic acid] | C (C represents an MIC of <1 μg/mL) |  | 
